Test results as given in the supplement of paper PMC10307832.

Columns and labels:
Assay in all cases: relative viability (nuclei count vs DMSO), 5 days (fraction); higher = more cells survive
[1] = compound: COc1cc(Nc2ncc(F)c(Nc3ccc4c(n3)NC(=O)C(C)(C)O4)n2)cc(OC)c1OC [R406] + N=C(N)NC(=N)NCCc1ccccc1 [Phenformin] (partner 250 µM)
How it was run: (§1)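 Lung cancer cell lines were pin-tool dosed in 1536-well plates on the day after seeding, with either a lone drug or a fixed anchor-drug dose plus five library-drug doses (not always all listed) in √10 steps. Nuclei were counted on 4× images after 5 days. Relative viability is the ratio of treated-well to vehicle-well nuclei counts, with each value a median of duplicate plates.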

[2] = compound: O=C(/C=C/c1cccnc1)NCCCCC1CCN(C(=O)c2ccccc2)CC1 [Daporinad] + CCNC(=O)c1noc(-c2cc(C(C)C)c(O)cc2O)c1-c1ccc(CN2CCOCC2)cc1 [Luminespib] (partner 0.01 µM)
How it was run: as §1

[3] = compound: O=C(/C=C/c1cccnc1)NCCCCC1CCN(C(=O)c2ccccc2)CC1 [Daporinad] + Cc1nc(NC(=O)N2CCC[C@H]2C(N)=O)sc1-c1ccnc(C(C)(C)C(F)(F)F)c1 [Alpelisib] (partner 2 µM)
How it was run: as §1

[4] = compound: COc1cc(Nc2ncc(F)c(Nc3ccc4c(n3)NC(=O)C(C)(C)O4)n2)cc(OC)c1OC [R406] + CC1(C)CCC(c2ccc(Cl)cc2)=C(CN2CCN(c3ccc(C(=O)NS(=O)(=O)c4ccc(N[C@H](CCN5CCOCC5)CSc5ccccc5)c(S(=O)(=O)C(F)(F)F)c4)cc3)CC2)C1 [Navitoclax] (partner 0.5 µM)
How it was run: as §1

With SW 1573 the relative viability ([1]; first compound 0.08 µM) was 0.371, the relative viability ([1]; first compound 0.253 µM) was 0.43 and the relative viability ([1]; first compound 0.8 µM) was 0.469. The relative viability ([1]; first compound 2.53 µM) was 0.263, the relative viability ([1]; first compound 8 µM) was 0.151 and the relative viability ([2]; first compound 0.0005 µM) was 0.207. The relative viability ([2]; first compound 0.001581 µM) was 0.737, the relative viability ([2]; first compound 0.005 µM) was 0.207 and the relative viability ([2]; first compound 0.01581 µM) was 0.296. The relative viability ([3]; first compound 0.0005 µM) was 0.615, the relative viability ([3]; first compound 0.001581 µM) was 0.788 and the relative viability ([3]; first compound 0.005 µM) was 0.938. The relative viability ([3]; first compound 0.01581 µM) was 0.69, the relative viability ([4]; first compound 0.08 µM) was 0.956 and the relative viability ([4]; first compound 0.253 µM) was 1.1. It also gave a relative viability ([4]; first compound 0.8 µM) of 1.2, a relative viability ([4]; first compound 2.53 µM) of 0.794 and a relative viability ([4]; first compound 8 µM) of 0.5.
